Experimental data: PubChem BioAssay AID192 (DTP/NCI, 2004)
Values joined by “and” are separate entries in the source; they are usually repeats but may differ in a detail not shown here. Equal entries are not always repeated. Toxic doses and inconclusive results are not listed.

Tested on: BDF1 mice, B16 melanoma ip, median survival T/C
Assay: NCI In Vivo Anticancer Drug Screen. Data for tumor model B16 Melanoma (intraperitoneal) in B6D2F1 (BDF1) mice
Conditions: endpoint: median survival time, higher = longer survival
Experimental: The antitumor activity of compounds was measured in mice bearing transplantable tumors. Survival or tumor size were measured and the results are expressed as the measurement made in the treated group (T) divided by the measurement made in the vehicle treated control group (C). The tumor model used in this assay is B16 Melanoma (intraperitoneal) in B6D2F1 (BDF1) mice

[1] = dose: 6.25 mg/kg/injection, schedule: Q01DX009 (ip), vehicle: saline with Tween-80
[2] = dose: 12.5 mg/kg/injection, schedule: Q01DX009 (ip), vehicle: saline with Tween-80
[3] = dose: 25.0 mg/kg/injection, schedule: Q01DX009 (ip), vehicle: saline with Tween-80
[4] = dose: 50.0 mg/kg/injection, schedule: Q01DX009 (ip), vehicle: saline with Tween-80
[5] = dose: 100.0 mg/kg/injection, schedule: Q01DX009 (ip), vehicle: saline with Tween-80
[6] = dose: 200.0 mg/kg/injection, schedule: Q01DX009 (ip), vehicle: saline with Tween-80
[7] = dose: 6.25 mg/kg/injection, schedule: Q01DX009 (ip), vehicle: Klucel (hydroxypropylcellulose) (HPC)
[8] = dose: 12.5 mg/kg/injection, schedule: Q01DX009 (ip), vehicle: Klucel (hydroxypropylcellulose) (HPC)
[9] = dose: 200.0 mg/kg/injection, schedule: Q01DX009 (ip), vehicle: saline
[10] = dose: 400.0 mg/kg/injection, schedule: Q01DX009 (ip), vehicle: saline
[11] = dose: 25.0 mg/kg/injection, schedule: Q01DX009 (ip), vehicle: Klucel (hydroxypropylcellulose) (HPC)
[12] = dose: 100.0 mg/kg/injection, schedule: Q01DX009 (ip), vehicle: Klucel (hydroxypropylcellulose) (HPC)

COc1cc(C2c3cc4c(cc3CC3COC(=O)C32)OCO4)cc(OC)c1O (centres undefined)
T/C (dose: 0.5 mg/kg/injection, schedule: Q01DX009 (ip), vehicle: saline with Tween-80): 98 % of control | T/C (dose: 1.0 mg/kg/injection, schedule: Q01DX009 (ip), vehicle: saline with Tween-80): 104 % of control | T/C (dose: 2.0 mg/kg/injection, schedule: Q01DX009 (ip), vehicle: saline with Tween-80): 123 % of control | T/C (dose: 4.0 mg/kg/injection, schedule: Q01DX009 (ip), vehicle: saline with Tween-80): 106 % of control

O=C1CC(C(=O)N2Cc3cc4ccccc4nc3C2)CO1 (centres undefined)
T/C [1]: 111 % of control | T/C [2]: 115 % of control | T/C [3]: 113 % of control | T/C [4]: 109 % of control | T/C [5]: 116 % of control | T/C [6]: 100 % of control

CCCCNC(C)C1(O)Cc2c(O)c3c(c(O)c2C(OC2CC(N)C(O)C(C)O2)C1)C(=O)c1c(OC)cccc1C3=O (centres undefined)
T/C (dose: 50.0 mg/kg/injection, schedule: Q01DX001 (ip), vehicle: water): 114 % of control and 181 % of control and 204 % of control | T/C (dose: 100.0 mg/kg/injection, schedule: Q01DX001 (ip), vehicle: water): 114 % of control and 263 % of control and 292 % of control | T/C (dose: 200.0 mg/kg/injection, schedule: Q01DX001 (ip), vehicle: water): 117 % of control and 217 % of control and 293 % of control | T/C (dose: 400.0 mg/kg/injection, schedule: Q01DX001 (ip), vehicle: water): 89 % of control

C=CCNCCN1CCN(CCCN2c3ccccc3Sc3ccc(C(F)(F)F)cc32)CC1
T/C (dose: 6.25 mg/kg/injection, schedule: Q01DX009 (ip), vehicle: saline): 105 % of control | T/C (dose: 9.37 mg/kg/injection, schedule: Q04DX003 (ip), vehicle: saline): 100 % of control | T/C (dose: 12.5 mg/kg/injection, schedule: Q01DX009 (ip), vehicle: saline): 110 % of control | T/C (dose: 18.75 mg/kg/injection, schedule: Q04DX003 (ip), vehicle: saline): 97 % of control | T/C (dose: 55.0 mg/kg/injection, schedule: Q04DX003 (ip), vehicle: saline): 91 % of control

CN(C)CCOc1ccccn1
T/C [5]: 94 % of control | T/C [6]: 97 % of control

Clc1ccc(C(c2ccccc2Cl)C(Cl)Cl)cc1 (centres undefined)
T/C [4]: 95 % of control | T/C [5]: 95 % of control | T/C [6]: 90 % of control

CN(C)S(=O)(=O)C(C)(C)c1ccccc1
T/C [4]: 90 % of control | T/C [5]: 93 % of control | T/C [6]: 95 % of control

COc1ccc2cc3[n+](cc2c1OC)CCc1cc2c(cc1-3)OCO2
T/C (dose: 1.5 mg/kg/injection, schedule: Q01DX009 (ip), vehicle: carboxymethylcellulose (CMC)): 105 % of control | T/C (dose: 2.5 mg/kg/injection, schedule: Q01DX009 (ip), vehicle: Klucel (hydroxypropylcellulose) (HPC)): 106 % of control | T/C (dose: 2.5 mg/kg/injection, schedule: Q01DX009 (ip), vehicle: saline with Tween-80): 100 % of control | T/C (dose: 2.5 mg/kg/injection, schedule: Q02DX005 (ip), vehicle: Klucel (hydroxypropylcellulose) (HPC)): 109 % of control | T/C (dose: 3.0 mg/kg/injection, schedule: Q01DX009 (ip), vehicle: carboxymethylcellulose (CMC)): 96 % of control | T/C (dose: 3.12 mg/kg/injection, schedule: Q01DX009 (ip), vehicle: carboxymethylcellulose (CMC)): 95 % of control | T/C (dose: 5.0 mg/kg/injection, schedule: Q01DX009 (ip), vehicle: Klucel (hydroxypropylcellulose) (HPC)): 108 % of control | T/C (dose: 5.0 mg/kg/injection, schedule: Q01DX009 (ip), vehicle: saline with Tween-80): 110 % of control | T/C (dose: 5.0 mg/kg/injection, schedule: Q02DX005 (ip), vehicle: Klucel (hydroxypropylcellulose) (HPC)): 110 % of control | T/C [7]: 105 % of control | T/C (dose: 10.0 mg/kg/injection, schedule: Q01DX009 (ip), vehicle: saline with Tween-80): 102 % of control | T/C (dose: 10.0 mg/kg/injection, schedule: Q02DX005 (ip), vehicle: Klucel (hydroxypropylcellulose) (HPC)): 100 % of control | T/C [8]: 106 % of control

CC(C)CC(N)C(=O)OCc1ccccc1 (centres undefined)
T/C (dose: 100.0 mg/kg/injection, schedule: Q04DX003 (ip), vehicle: saline): 109 % of control | T/C [9]: 93 % of control | T/C (dose: 200.0 mg/kg/injection, schedule: Q04DX003 (ip), vehicle: saline): 104 % of control | T/C [10]: 91 % of control | T/C (dose: 400.0 mg/kg/injection, schedule: Q04DX003 (ip), vehicle: saline): 100 % of control

CC(C)(SCCc1ccc([N+](=O)[O-])cc1)C(N)C(=O)O (centres undefined)
T/C [7]: 88 % of control

CC[CH2][Pb]([CH2]CC)([CH2]CC)[O]C(=O)C(F)(F)F
T/C (dose: 0.39 mg/kg/injection, schedule: Q01DX009 (ip), vehicle: saline with Tween-80): 93 % of control | T/C (dose: 0.78 mg/kg/injection, schedule: Q01DX009 (ip), vehicle: saline with Tween-80): 111 % of control | T/C (dose: 1.5 mg/kg/injection, schedule: Q01DX009 (ip), vehicle: saline with Tween-80): 104 % of control | T/C (dose: 3.0 mg/kg/injection, schedule: Q01DX009 (ip), vehicle: saline with Tween-80): 98 % of control | T/C (dose: 3.12 mg/kg/injection, schedule: Q01DX009 (ip), vehicle: saline with Tween-80): 86 % of control

O=C(c1ccccc1Cl)N(Cc1ccccc1)c1ccccc1
T/C [11]: 93 % of control | T/C (dose: 50.0 mg/kg/injection, schedule: Q01DX009 (ip), vehicle: Klucel (hydroxypropylcellulose) (HPC)): 93 % of control | T/C [12]: 90 % of control and 100 % of control

O=C(O)C1Cc2c([nH]c3ccccc23)C(CCCCO)N1 (centres undefined)
T/C [7]: 99 % of control | T/C [8]: 101 % of control | T/C [11]: 107 % of control

CNC(=O)CCCCC(=O)NC
T/C [4]: 102 % of control | T/C [5]: 116 % of control | T/C [6]: 124 % of control | T/C (dose: 400.0 mg/kg/injection, schedule: Q01DX009 (ip), vehicle: saline with Tween-80): 115 % of control

CCN(CC)C(=O)C1CN2CCc3cc(OC)c(OC)cc3C2CC1O (centres undefined)
T/C (dose: 25.0 mg/kg/injection, schedule: Q01DX009 (ip), vehicle: saline): 90 % of control | T/C (dose: 50.0 mg/kg/injection, schedule: Q01DX009 (ip), vehicle: saline): 100 % of control | T/C (dose: 100.0 mg/kg/injection, schedule: Q01DX009 (ip), vehicle: saline): 100 % of control | T/C [9]: 102 % of control | T/C [10]: 100 % of control

C[CH2][Pb]([CH2]C)([CH2]C)[O]C(=O)CBr
T/C (dose: 0.75 mg/kg/injection, schedule: Q01DX009 (ip), vehicle: Klucel (hydroxypropylcellulose) (HPC)): 100 % of control | T/C (dose: 1.5 mg/kg/injection, schedule: Q01DX009 (ip), vehicle: Klucel (hydroxypropylcellulose) (HPC)): 112 % of control | T/C (dose: 3.0 mg/kg/injection, schedule: Q01DX009 (ip), vehicle: Klucel (hydroxypropylcellulose) (HPC)): 105 % of control and 113 % of control

CCOC(=O)C(=CNc1cccc(N)n1)C(=O)OCC
T/C [12]: 107 % of control | T/C (dose: 200.0 mg/kg/injection, schedule: Q01DX009 (ip), vehicle: Klucel (hydroxypropylcellulose) (HPC)): 111 % of control | T/C (dose: 400.0 mg/kg/injection, schedule: Q01DX009 (ip), vehicle: Klucel (hydroxypropylcellulose) (HPC)): 94 % of control

COc1cc(C=Nc2cccc(Br)c2)ccc1N(CCCl)CCCl
T/C (dose: 0.8 mg/kg/injection, schedule: Q01DX009 (ip), vehicle: saline with Tween-80): 113 % of control | T/C (dose: 1.56 mg/kg/injection, schedule: Q01DX009 (ip), vehicle: Klucel (hydroxypropylcellulose) (HPC)): 113 % of control | T/C (dose: 3.12 mg/kg/injection, schedule: Q01DX009 (ip), vehicle: Klucel (hydroxypropylcellulose) (HPC)): 115 % of control | T/C [1]: 164 % of control | T/C [8]: 163 % of control | T/C [2]: 158 % of control

CC(=O)C1=C(C)NC(C)=C(C(C)=O)C1c1cccc([N+](=O)[O-])c1
T/C [3]: 94 % of control | T/C [4]: 94 % of control | T/C [5]: 97 % of control

Nc1ccn(C2OC(COC(=O)C34CC5CC(CC(C5)C3)C4)C(O)C2O)c(=O)n1 (centres undefined)
T/C [1]: 115 % of control | T/C [2]: 153 % of control | T/C [3]: 155 % of control and 191 % of control

CCOC(=O)c1ccc(OC(=O)Nc2ccc(Cl)cc2)cc1
T/C [5]: 96 % of control | T/C [6]: 92 % of control

CCCCNC(=O)Nc1cc(C)c(C)cc1C
T/C (dose: 50.0 mg/kg/injection, schedule: Q01DX009 (ip), vehicle: gum acacia): 95 % of control | T/C (dose: 100.0 mg/kg/injection, schedule: Q01DX009 (ip), vehicle: gum acacia): 99 % of control | T/C (dose: 200.0 mg/kg/injection, schedule: Q01DX009 (ip), vehicle: gum acacia): 91 % of control
